The values that follow come from patent publication US20060069132A1, “Azolecarboxamide herbicides” (priority 2004, published 2006).

Assay [1] concerns pigweed. The experiment in a line: Test C pre-/postemergence herbicide test. The assay is classed as in vivo, Amaranthus retroflexus. Summed up:
(§1)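 Preemergence: seeds planted and treated with compound in non-phytotoxic solvent with surfactant; postemergence: plants at 2 to 18 cm (1- to 4-leaf stage) sprayed likewise. Kept in greenhouse 12 to 14 days, then visually rated against controls, 0 (no effect) to 100 (complete control).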

In assay [2] the test system is cocklebur. The experiment in a line: Test C pre-/postemergence herbicide test. The assay is classed as in vivo, Xanthium strumarium. The method, boiled down: as §1
For assay [3], the system named is velvetleaf. The assay can be described thus: Test C pre-/postemergence herbicide test. The assay is classed as in vivo, Abutilon theophrasti. Summed up: as §1
Assay [4] concerns rice. The assay can be described thus: Test B pre-/postemergence herbicide test. The format is in vivo, Oryza sativa. Summed up:
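Pre: seeds sown, then sprayed. Post: 1–4-leaf plants (2–18 cm) sprayed at the same time. Paddy: flooded, treated at 2-leaf stage. Formulation: non-phytotoxic solvent with surfactant. Greenhouse 13–15 days; visual 0–100 score relative to controls.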

Assay [5] has as its system large crabgrass. The experiment in a line: Test C pre-/postemergence herbicide test. The assay is classed as in vivo, Digitaria sanguinalis. The method, boiled down: as §1
Assay [6] has as its system velvetleaf. The assay can be described thus: Test A pre-/postemergence herbicide test. The assay is classed as in vivo, Abutilon theophrasti. Summed up: (§2)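 Sandy loam soil given preemergence directed spray; plants at 2 to 10 cm, one- to two-leaf stage, sprayed to runoff postemergence, compounds in non-phytotoxic solvent with surfactant. Injury rated visually versus untreated controls after about ten greenhouse days, 0 (no effect) to 100 (complete control); dash means not tested.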

Assay [7] relates to giant foxtail. The experiment in a line: Test A pre-/postemergence herbicide test. The assay is classed as in vivo, Setaria faberi. The method, boiled down:
as §2

Where [8] appears, read: Postemergence, 250 g ai/ha, scale 0 to 100, 0 no effect, 100 complete control.
Where [9] appears, read: postemergence, 62 g ai/ha, scale 0 to 100.
Setting [10] is: postemergence, 125 g ai/ha, scale 0 to 100.
The mark [11] stands for this setting: 125 g ai/ha, 0 = no effect, 100 = complete control, preemergence.
Setting [12] is: 500 g ai/ha, visual rating, 0 = no effect, 100 = complete control, preemergence.
Where [13] appears, read: Postemergence, 500 g ai/ha, 0 to 100 scale, 0 no effect, 100 complete control.
Where [14] appears, read: Postemergence, 2000 g ai/ha, 0 to 100 scale, 0 no effect, 100 complete control.
The mark [15] stands for this setting: Preemergence, 2000 g ai/ha, visual rating, 0 to 100 scale (0 no effect, 100 complete control).
[16] abbreviates: preemergence, 500 g ai/ha, visual injury, 0 to 100 scale (0 no effect, 100 complete control).
The mark [17] stands for this setting: Postemergence, 125 g ai/ha, 0 to 100 scale, 0 no effect, 100 complete control.
Setting [18] is: Preemergence, 500 g ai/ha, visual rating, 0 to 100 scale (0 no effect, 100 complete control).
The mark [19] stands for this setting: preemergence, 125 g ai/ha, visual injury, 0 to 100 scale (0 no effect, 100 complete control).
Setting [20] is: preemergence, 125 g ai/ha, 0 to 100 scale, 0 is no effect, 100 is complete control.

For `CCOC(=O)c1cccc(NC(=O)c2cc(C3(C)CC3)nn2CC)c1` [Compound 295], the entries for the “Plant response rating, Pigweed” value in assay [1] (setting [8]) and in assay [1] (setting [9]) were 95 and 80, respectively. Moreover, the “Plant response rating, Cocklebur” value in assay [2] (setting [8]) was 10; in assay [2] (setting [10]) it was 5; in assay [2] (postemergence, 31 g ai/ha, scale 0 to 100) it was 5; in assay [2] (setting [9]), 5. The “Plant response rating, Velvetleaf” value in assay [3] (setting [8]) came out at 70; in assay [3] (setting [10]) it was 65; in assay [3] (setting [9]), 60. Besides, the “Rice plant response rating (0 to 100 scale)” value in assay [4] (setting [11]) worked out at 10. Further, in assay [4] (setting [12]), the “Plant response rating, Rice” value turned out to be 20. Also, the “Plant response rating, Crabgrass, Large” value was determined as 35 in assay [5] (setting [8]) and 30 in assay [5] (setting [10]).
In the case of `C#CCNC(=O)c1cccc(NC(=O)c2sc(C(C)(C)C)nc2CC)c1` [Compound 319], the “Velvetleaf plant response rating” value in assay [6] (setting [13]) is recorded as 20; in assay [6] (setting [15]), 45; in assay [6] (setting [16]), 35. For the same compound, the “Plant response rating, Velvetleaf” value in assay [6] (setting [14]) worked out at 30. Also, the entries for the “Foxtail, Giant plant response rating” value in assay [7] (setting [13]), in assay [7] (setting [15]) and in assay [7] (setting [16]) were 0, 80 and 55, respectively. Besides, the “Plant response rating, Foxtail, Giant” value in assay [7] (setting [14]) turned out to be 40. In addition, the “Plant response rating (0 to 100 scale), Rice” value in assay [4] (125 g ai/ha, 0 is no effect, 100 is complete control, preemergence) stood at 30. In addition, the “Plant response rating, Rice” value in assay [4] (setting [12]) is listed as 70.
Turning to `CCn1nc(C(C)(C)C)cc1C(=O)Nc1cccc(C(=O)NC(C)C)c1` [Compound 51], the “Velvetleaf plant response rating” value in assay [6] (setting [17]) was 40; in assay [6] (setting [18]), 100; in assay [6] (setting [19]) it was 20. In addition, the “Foxtail, Giant plant response rating” value in assay [7] (setting [17]) is recorded as 20; in assay [7] (setting [18]), 100; in assay [7] (setting [19]), 70. In assay [7] (setting [13]), the “Plant response rating, Foxtail, Giant” value is 40. In addition, the “Rice plant response rating” value in assay [4] (Preemergence, 500 g ai/ha, scale 0 to 100) amounted to 50. Besides, the “Plant response rating, Rice” value in assay [4] (setting [20]) was 0.
Regarding `CCn1nc(C(C)(C)C)cc1C(=O)Nc1cncc(C(=O)N2CC=CC2)n1` [Compound 290], the “Velvetleaf plant response rating” value is listed as 20 in assay [6] (setting [13]), 30 in assay [6] (setting [15]) and 15 in assay [6] (setting [16]). Besides, the “Plant response rating, Velvetleaf” value in assay [6] (setting [14]) turned out to be 30. Also, the results for the “Foxtail, Giant plant response rating” value in assay [7] (setting [13]), in assay [7] (setting [15]) and in assay [7] (setting [16]) were 15, 90 and 50, respectively. Besides, in assay [7] (setting [14]), the “Plant response rating, Foxtail, Giant” value is on record as 70. Besides, the “Rice plant response rating (0 to 100 scale)” value in assay [4] (setting [11]) was 0. For the same compound, the “Plant response rating, Rice” value in assay [4] (setting [12]) is 80.
In the case of `CCc1nc(C(C)(C)C)sc1C(=O)Nc1cccc(C(=O)NCCF)c1` [Compound 209], the entries for the “Velvetleaf plant response rating” value in assay [6] (setting [13]), in assay [6] (setting [15]) and in assay [6] (setting [16]) were 10, 75 and 10, respectively. For the same compound, the “Plant response rating, Velvetleaf” value in assay [6] (setting [14]) was 20. Further, the “Foxtail, Giant plant response rating” value came out at 15 in assay [7] (setting [13]), 90 in assay [7] (setting [15]) and 50 in assay [7] (setting [16]). The “Plant response rating, Foxtail, Giant” value in assay [7] (setting [14]) is reported as 25. Further, the “Rice plant response rating (0 to 100 scale)” value in assay [4] (setting [11]) is recorded as 30. Besides, the “Plant response rating, Rice” value in assay [4] (500 g ai/ha, visual rating 0-100, 0 no effect, 100 complete control, preemergence) is listed as 70.
Consider `CCn1nc(C(C)(C)C)cc1C(=O)Nc1cccc(C(C)=O)c1` [Compound 122], for which the “Velvetleaf plant response rating” value stood at 45 in assay [6] (setting [13]), 70 in assay [6] (setting [15]) and 40 in assay [6] (setting [16]). The “Plant response rating, Velvetleaf” value in assay [6] (setting [14]) is listed as 70. Further, the “Foxtail, Giant plant response rating” value is 80 in assay [7] (setting [13]), 65 in assay [7] (setting [18]) and 85 in assay [7] (setting [15]). For the same compound, in assay [7] (setting [14]), the “Plant response rating, Foxtail, Giant” value is given as 80. Moreover, the “Plant response rating, Rice” value in assay [4] (setting [20]) is 20.
As for `CCNC(=O)c1ccc(F)c(NC(=O)c2cc(C(C)(C)C)nn2CC)n1` [Compound 278], the entries for the “Velvetleaf plant response rating” value in assay [6] (setting [13]), in assay [6] (setting [15]) and in assay [6] (setting [16]) were 20, 35 and 20, respectively. In addition, the “Plant response rating, Velvetleaf” value in assay [6] (setting [14]) turned out to be 25. Further, the “Foxtail, Giant plant response rating” value in assay [7] (setting [13]) is reported as 5; in assay [7] (setting [15]), 85; in assay [7] (setting [16]), 60. In addition, the “Plant response rating, Foxtail, Giant” value in assay [7] (setting [14]) worked out at 15. Besides, in assay [4] (setting [11]), the “Rice plant response rating (0 to 100 scale)” value was 30. The “Plant response rating, Rice” value in assay [4] (setting [12]) was determined as 80.
With `CCc1nc(C(C)(C)C)sc1C(=O)Nc1cccc(C(=O)NC(C)(C)C)n1` [Compound 216], the “Velvetleaf plant response rating” value was 25 in assay [6] (setting [13]), 30 in assay [6] (setting [15]) and 10 in assay [6] (setting [16]). Besides, the “Plant response rating, Velvetleaf” value in assay [6] (setting [14]) was found to be 35. In addition, the “Foxtail, Giant plant response rating” value in assay [7] (setting [13]) is 20; in assay [7] (setting [15]), 70; in assay [7] (setting [16]), 25. In assay [7] (setting [14]), the “Plant response rating, Foxtail, Giant” value is recorded as 20. The “Rice plant response rating (0 to 100 scale)” value in assay [4] (setting [11]) is 0. For the same compound, the “Plant response rating, Rice” value in assay [4] (setting [12]) is on record as 70.
